The values that follow are results of earlier work, collected in patent EP0687181B1, “USE OF THYMOSIN FOR TREATING HEPATITIS C IN NON-RESPONDERS TO INTERFERON TREATMENT” (ALPHA 1 BIOMEDICALS, INC., priority 1993, dated 2001).

One series concerns HCV-related diseases. The settings on record: in vivo.
Another series concerns influenza vaccine. The following applies: drug recipients.

Where no end group is shown, it is not given here.

`Nc1nc2c(ncn2COCCO)c(=O)[nH]1` [acyclovir]: the “effect on progression of HCV-related diseases” value in the series with HCV-related diseases is recorded as “ineffective”.

“Ac-SDAAVDTSSEITTKDLKEKKEVVEEAEN [Thymosin α-1]”: the toxicity entry in the series on influenza vaccine is given as “No clinical or biochemical toxicity”.
